Active and inactive are the calls of the source. The calls are words filed in the database; no cut-off is given here.
Key:
Format in all cases: functional, cell-based
MHCC97H [1] = test: Cytotoxicity against human MHCC97H cells assessed as inhibition of cell proliferation incubated for 48 hrs by MTT assay
HCCLM3 [2] = test: Cytotoxicity against human HCCLM3 cells assessed as inhibition of cell proliferation incubated for 48 hrs by MTT assay; conditions: HCCLM3, 48 h
Huh-7 = test: Cytotoxicity against human Huh-7 cells assessed as inhibition of cell proliferation incubated for 48 hrs by MTT assay; conditions: Huh-7, 48 h
HepG2 = test: Cytotoxicity against human HepG2 cells assessed as inhibition of cell proliferation incubated for 48 hrs by MTT assay; conditions: HepG2, 48 h
HCCLM3 [3] = test: Cytotoxicity against human HCCLM3 cells assessed as cell viability up to 40 uM measured at 12 hrs by MTT assay
MHCC97H [4] = test: Cytotoxicity against human MHCC97H cells assessed as cell viability up to 40 uM measured at 24 to 48 hrs by MTT assay; conditions: time 24-48 hrs
MHCC97H [5] = test: Cytotoxicity against human MHCC97H cells assessed as cell viability up to 40 uM measured at 12 hrs by MTT assay
HCCLM3 [6] = test: Cytotoxicity against human HCCLM3 cells assessed as reduction in cell viability at 40 uM measured at 48 hrs by MTT assay
HCCLM3 [7] = test: Cytotoxicity against human HCCLM3 cells assessed as reduction in cell viability at 40 uM measured after 48 hrs by MTT assay
MHCC97H [8] = test: Cytotoxicity against human MHCC97H cells assessed as cell viability up to 40 uM by MTT assay; conditions: time 12-48 hrs
HCCLM3 [9] = test: Cytotoxicity against human HCCLM3 cells assessed as cell viability up to 40 uM measured at 24 to 48 hrs by MTT assay; conditions: time 24-48 hrs
HCCLM3 [10] = test: Cytotoxicity against human HCCLM3 cells assessed as reduction in cell viability up to 40 uM measured at 48 hrs by MTT assay
MHCC97H [11] = test: Cytotoxicity against human MHCC97H cells assessed as reduction in cell viability at 40 uM measured at 48 hrs by MTT assay
MHCC97H [12] = test: Cytotoxicity against human MHCC97H cells assessed as reduction in cell viability at 40 uM measured after 48 hrs by MTT assay
MHCC97H [13] = test: Cytotoxicity against human MHCC97H cells assessed as reduction in cell viability up to 40 uM measured at 48 hrs by MTT assay
HCCLM3 [14] = test: Cytotoxicity against human HCCLM3 cells assessed as cell viability up to 40 uM by MTT assay; conditions: time 12-48 hrs
HCCLM3 [15] = test: Cytotoxicity against human HCCLM3 cells assessed as cell viability incubated at 12 to 48 hrs hrs by MTT assay; conditions: dose <= 40.0 µM, time 12-48 hrs
MHCC97H [16] = test: Cytotoxicity against human MHCC97H cells assessed as cell viability incubated at 12 to 48 hrs hrs by MTT assay; conditions: dose <= 40.0 µM, time 12-48 hrs

SMILES | IC50 (MHCC97H [1]) | IC50 (HCCLM3 [2]) | IC50 (Huh-7) | IC50 (HepG2) | further results
CC(C)C[C@@H]1NC(=O)[C@H](CC(C)C)NC(=O)[C@@H](CCCCNC(=O)OC(C)(C)C)NC(=O)[C@@H]2CCCN2C(=O)[C@@H](CC(C)C)NC(=O)[C@H](Cc2ccccc2)NC(=O)[C@H](CC(C)C)NC(=O)[C@H](C(C)C)NC(=O)[C@H](CC(C)C)NC1=O | 3.64 µM | 5.23 µM | > 100 µM | > 100 µM | 
CC(C)C[C@@H]1NC(=O)[C@H](CC(C)C)NC(=O)[C@@H](CCCCNC(=O)OC(C)(C)C)NC(=O)[C@@H]2CCCN2C(=O)[C@@H](CC(C)C)NC(=O)[C@H](COC(C)(C)C)NC(=O)[C@H](CC(C)C)NC(=O)[C@H](C(C)C)NC(=O)[C@H](CC(C)C)NC1=O | 10.2 µM | 10.2 µM | > 100 µM | > 100 µM | 
CC[C@@H](C)[C@H]1NC(=O)[C@@H]2CCCN2C(=O)[C@@H](CC(C)C)NC(=O)[C@@H]([C@@H](C)OC(C)(C)C)NC(=O)[C@H](CC(C)C)NC(=O)[C@H](C(C)C)NC(=O)[C@H](CC(C)C)NC(=O)[C@H](CC(C)C)NC(=O)[C@H](CC(C)C)NC1=O | > 100 µM | > 100 µM | > 100 µM | > 100 µM | 
CC[C@@H](C)[C@H]1NC(=O)[C@@H]2CCCN2C(=O)[C@@H](CC(C)C)NC(=O)[C@@H](Cc2ccc(OC(C)(C)C)cc2)NC(=O)[C@H](CC(C)C)NC(=O)[C@H](C(C)C)NC(=O)[C@H](CC(C)C)NC(=O)[C@H](CC(C)C)NC(=O)[C@H](CC(C)C)NC1=O | > 100 µM | > 100 µM | > 100 µM | > 100 µM | 
CC[C@@H](C)[C@H]1NC(=O)[C@@H]2CCCN2C(=O)[C@@H](CC(C)C)NC(=O)[C@H]([C@H](C)OC(C)(C)C)NC(=O)[C@@H](CC(C)C)NC(=O)[C@H](C(C)C)NC(=O)[C@H](CC(C)C)NC(=O)[C@H](CC(C)C)NC(=O)[C@H](CC(C)C)NC1=O | 6.05 µM | 4.19 µM | 3.41 µM | 3.41 µM | 
CC[C@@H](C)[C@H]1NC(=O)[C@@H]2CCCN2C(=O)[C@@H](CC(C)C)NC(=O)[C@@H](COC(C)(C)C)NC(=O)[C@H](CC(C)C)NC(=O)[C@H](C(C)C)NC(=O)[C@H](CC(C)C)NC(=O)[C@H](CC(C)C)NC(=O)[C@H](CC(C)C)NC1=O | > 100 µM | > 100 µM | > 100 µM | > 100 µM | 
CC[C@@H](C)[C@H]1NC(=O)[C@@H]2CCCN2C(=O)[C@@H](CC(C)C)NC(=O)[C@H](CCCCNC(=O)OC(C)(C)C)NC(=O)[C@@H](CC(C)C)NC(=O)[C@H](C(C)C)NC(=O)[C@H](CC(C)C)NC(=O)[C@H](CC(C)C)NC(=O)[C@H](CC(C)C)NC1=O | > 100 µM | > 100 µM | > 100 µM | > 100 µM | 
CC[C@@H](C)[C@H]1NC(=O)[C@@H]2CCCN2C(=O)[C@@H](CC(C)C)NC(=O)[C@H](COC(C)(C)C)NC(=O)[C@@H](CCCCNC(=O)OC(C)(C)C)NC(=O)[C@H](C(C)C)NC(=O)[C@H](CC(C)C)NC(=O)[C@H](CC(C)C)NC(=O)[C@H](CC(C)C)NC1=O | 3.04 µM | 2.99 µM | > 100 µM | > 100 µM | 
CC[C@@H](C)[C@H]1NC(=O)[C@@H]2CCCN2C(=O)[C@@H](CC(C)C)NC(=O)CNC(=O)[C@H](CC(C)C)NC(=O)[C@H](C(C)C)NC(=O)[C@H](CC(C)C)NC(=O)[C@H](CC(C)C)NC(=O)[C@H](CC(C)C)NC1=O | > 100 µM | > 100 µM | > 100 µM | > 100 µM | 
CC(C)C[C@@H]1NC(=O)[C@H](CC(C)C)NC(=O)[C@@H](CCCCNC(=O)OC(C)(C)C)NC(=O)[C@@H]2CCCN2C(=O)[C@@H](CC(C)C)NC(=O)[C@H](Cc2ccc(OC(C)(C)C)cc2)NC(=O)[C@H](CC(C)C)NC(=O)[C@H](C(C)C)NC(=O)[C@H](CC(C)C)NC1=O | 3.51 µM | 3.26 µM | > 100 µM | > 100 µM | Activity (HCCLM3 [3]): Active; Activity (MHCC97H [4]): Active; Activity (MHCC97H [5]): Active; Activity (HCCLM3 [6]): Active; Activity (HCCLM3 [7]): Active; Activity (MHCC97H [8]): Time-dependent-effect; Activity (HCCLM3 [9]): Active; Activity (HCCLM3 [10]): Active; Activity (MHCC97H [11]): Active; Activity (MHCC97H [12]): Active; Activity (MHCC97H [13]): Active; Activity (HCCLM3 [14]): Time-dependent-effect; Activity (HCCLM3 [15]): Dose-dependent-effect; Activity (MHCC97H [16]): Dose-dependent-effect
CC[C@@H](C)[C@H]1NC(=O)[C@@H]2CCCN2C(=O)[C@@H](CC(C)C)NC(=O)[C@H](Cc2ccc(OC(C)(C)C)cc2)NC(=O)[C@@H](CC(C)C)NC(=O)[C@H](C(C)C)NC(=O)[C@H](CC(C)C)NC(=O)[C@H](CC(C)C)NC(=O)[C@H](CC(C)C)NC1=O | 4.86 µM | 2.86 µM | 2.08 µM | 2.08 µM | 
CC[C@@H](C)[C@H]1NC(=O)[C@@H]2CCCN2C(=O)[C@@H](CC(C)C)NC(=O)[C@@H](Cc2ccccc2)NC(=O)[C@H](CC(C)C)NC(=O)[C@H](C(C)C)NC(=O)[C@H](CC(C)C)NC(=O)[C@H](CC(C)C)NC(=O)[C@H](CC(C)C)NC1=O | > 100 µM | > 100 µM | > 100 µM | > 100 µM | 
CC[C@@H](C)[C@H]1NC(=O)[C@@H]2CCCN2C(=O)[C@@H](CC(C)C)NC(=O)[C@@H]([C@@H](C)OC(C)(C)C)NC(=O)[C@@H](CCCCNC(=O)OC(C)(C)C)NC(=O)[C@H](C(C)C)NC(=O)[C@H](CC(C)C)NC(=O)[C@H](CC(C)C)NC(=O)[C@H](CC(C)C)NC1=O | 9.19 µM | 6.57 µM | > 100 µM | > 100 µM | Activity (HCCLM3 [3]): Active; Activity (MHCC97H [4]): Active; Activity (MHCC97H [5]): Active; Activity (HCCLM3 [6]): Active; Activity (HCCLM3 [7]): Active; Activity (MHCC97H [8]): Time-dependent-effect; Activity (HCCLM3 [9]): Active; Activity (HCCLM3 [10]): Active; Activity (MHCC97H [11]): Active; Activity (MHCC97H [12]): Active; Activity (MHCC97H [13]): Active; Activity (HCCLM3 [14]): Time-dependent-effect; Activity (HCCLM3 [15]): Dose-dependent-effect; Activity (MHCC97H [16]): Dose-dependent-effect
CC(C)C[C@@H]1NC(=O)[C@H](CC(C)C)NC(=O)[C@@H](CCCCNC(=O)OC(C)(C)C)NC(=O)[C@@H]2CCCN2C(=O)[C@@H](CC(C)C)NC(=O)[C@H](C(C)C)NC(=O)[C@H](CC(C)C)NC(=O)[C@H](C(C)C)NC(=O)[C@H](CC(C)C)NC1=O | 2.7 µM | 2.17 µM | > 100 µM | > 100 µM | 
CC[C@@H](C)[C@H]1NC(=O)[C@@H]2CCCN2C(=O)[C@@H](CC(C)C)NC(=O)[C@H](C(C)C)NC(=O)[C@@H](CC(C)C)NC(=O)[C@H](C(C)C)NC(=O)[C@H](CC(C)C)NC(=O)[C@H](CC(C)C)NC(=O)[C@H](CC(C)C)NC1=O | 8.18 µM | 9.94 µM | 12.2 µM | 12.2 µM | 

From ChEMBL document CHEMBL6109101, “Synthesis and bioactivity of cyclic peptide GG-8-6 analogues as anti-hepatocellular carcinoma agents” (Eur J Med Chem, 2025)
